Results reported in the supplement of paper PMC10307832.

compound: CC(C)CCN1c2nc(Nc3cc(F)c(O)c(F)c3)ncc2N(C)C(=O)C1C [BI-D1870] + Nc1nc2[nH]cc(CCc3ccc(C(=O)N[C@@H](CCC(=O)O)C(=O)O)cc3)c2c(=O)[nH]1 [Pemetrexed] (partner 0.2 µM); experiment: relative viability (nuclei count vs DMSO), 5 days (fraction); higher = more cells survive; settings: first compound 4 µM
How it was run: (§1)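 Relative viability was taken as the ratio of nuclei in treated wells to nuclei in vehicle wells. Lung cancer cell lines in 1536-well plates received compounds by pin tool one day after seeding, either one drug alone or a fixed anchor-drug dose plus five library-drug doses (not always all listed) in √10 steps. Nuclei were counted on 4× images after 5 days of treatment, and values are medians of duplicate plates.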

Compared with NCI-H1793, NCI-H1563 is higher in relative viability: 0.686 for the first, 0.841 for the second.

First: NCI-H1944
Second: NCI-H358
The relative viability of the first is higher: 0.552 for the first, 0.164 for the second.

compound: O=c1ncccn1[C@@H]1O[C@H](CO)[C@@H](O)[C@H]1O [Zebularine] + CC(C)C[C@H](NC(=O)[C@H](Cc1ccccc1)NC(=O)c1cnccn1)B(O)O [Bortezomib] (partner 0.002 µM); experiment: as above; settings: first compound 1 µM
How it was run: as §1

Compared with NCI-H727, NCI-H1650 is lower in relative viability: 0.901 for the first, 0.226 for the second.

Compared with EBC-1, NCI-H1703 is lower in relative viability: 0.528 for the first, 0.273 for the second.

Compared with NCI-H1993, SW 1573 is lower in relative viability: 1.26 for the first, 1.13 for the second.

First: NCI-H838
Second: LCLC-103H
The relative viability of the first is lower: 0.994 for the first, 1.19 for the second.

Compared with NCI-H520, NCI-H2126 is higher in relative viability: 0.831 for the first, 1.19 for the second.

Going from EMC-BAC-2 to NCI-H2085, the relative viability rises from 1.1 to 1.12.

First: Calu-6
Second: HCC-366
The relative viability of the first is lower: 1.04 for the first, 1.05 for the second.

Compared with NCI-H1666, NCI-H596 is higher in relative viability: 0.884 for the first, 1.06 for the second.

Compared with NCI-H2087, H3255 is lower in relative viability: 0.977 for the first, 0.897 for the second.

Going from COR-L23 to COR-L 105, the relative viability rises from 0.928 to 0.978.

Going from IA-LM to LOU-NH91, the relative viability falls from 0.63 to 0.485.

First: ChaGo-K-1
Second: NCI-H2405
The relative viability of the first is higher: 1.27 for the first, 1.03 for the second.

Going from HCC-44 to NCI-H1299, the relative viability rises from 0.95 to 1.01.

First: NCI-H1792
Second: NCI-H1563
The relative viability of the first is higher: 0.989 for the first, 0.826 for the second.

For ABC-1, the relative viability was 0.295.

same assay, conditions: first compound 3.162 µM

First: NCI-H727
Second: NCI-H1650
The relative viability of the first is higher: 0.816 for the first, 0.191 for the second.

Going from EBC-1 to NCI-H1703, the relative viability falls from 0.547 to 0.302.

Going from NCI-H1993 to SW 1573, the relative viability falls from 1.1 to 0.896.

First: NCI-H838
Second: LCLC-103H
The relative viability of the first is lower: 0.727 for the first, 1.1 for the second.

First: NCI-H520
Second: NCI-H2126
The relative viability of the first is lower: 0.449 for the first, 1.02 for the second.

Compared with EMC-BAC-2, NCI-H2085 is lower in relative viability: 1.09 for the first, 0.971 for the second.

First: Calu-6
Second: HCC-366
The relative viability of the first is lower: 0.85 for the first, 0.976 for the second.

Compared with NCI-H1666, NCI-H596 is higher in relative viability: 0.805 for the first, 1.1 for the second.

Going from NCI-H2087 to H3255, the relative viability falls from 0.747 to 0.736.

Compared with COR-L23, COR-L 105 is lower in relative viability: 1.13 for the first, 0.771 for the second.

Compared with IA-LM, LOU-NH91 is lower in relative viability: 0.892 for the first, 0.464 for the second.

First: ChaGo-K-1
Second: NCI-H2405
The relative viability of the first is higher: 0.982 for the first, 0.801 for the second.

Compared with HCC-44, NCI-H1299 is higher in relative viability: 0.868 for the first, 1.06 for the second.

Compared with NCI-H1792, NCI-H1563 is higher in relative viability: 0.932 for the first, 1.02 for the second.

With ABC-1 the relative viability was 0.248.

same assay, conditions: first compound 10 µM

Compared with NCI-H727, EBC-1 is lower in relative viability: 0.737 for the first, 0.508 for the second.

Going from NCI-H1703 to SW 1573, the relative viability rises from 0.296 to 0.78.

Going from NCI-H838 to LCLC-103H, the relative viability rises from 0.598 to 0.886.

Going from NCI-H520 to NCI-H2126, the relative viability rises from 0.337 to 0.953.

Going from EMC-BAC-2 to NCI-H2085, the relative viability rises from 0.732 to 0.828.

First: Calu-6
Second: HCC-366
The relative viability of the first is higher: 0.914 for the first, 0.292 for the second.

Going from NCI-H1666 to NCI-H596, the relative viability falls from 0.745 to 0.725.

Compared with NCI-H2087, H3255 is lower in relative viability: 0.512 for the first, 0.419 for the second.

Compared with COR-L23, COR-L 105 is higher in relative viability: 0.363 for the first, 0.694 for the second.

First: IA-LM
Second: LOU-NH91
The relative viability of the first is higher: 0.617 for the first, 0.51 for the second.

First: ChaGo-K-1
Second: NCI-H2405
The relative viability of the first is lower: 0.558 for the first, 0.778 for the second.

Going from HCC-44 to NCI-H1299, the relative viability rises from 0.483 to 0.969.

Going from NCI-H1792 to NCI-H1563, the relative viability rises from 0.369 to 0.874.

ABC-1 was tested, and the relative viability was 0.249.

same assay, conditions: first compound 31.62 µM

Going from NCI-H727 to NCI-H1650, the relative viability falls from 0.943 to 0.2.

First: EBC-1
Second: NCI-H1703
The relative viability of the first is higher: 0.572 for the first, 0.512 for the second.

Compared with NCI-H1993, SW 1573 is lower in relative viability: 1.14 for the first, 1.07 for the second.

First: NCI-H838
Second: LCLC-103H
The relative viability of the first is lower: 0.801 for the first, 1.19 for the second.

Going from NCI-H520 to NCI-H2126, the relative viability rises from 0.231 to 1.11.

Going from EMC-BAC-2 to NCI-H2085, the relative viability falls from 1.09 to 1.06.

First: Calu-6
Second: HCC-366
The relative viability of the first is higher: 0.77 for the first, 0.685 for the second.

First: NCI-H1666
Second: NCI-H596
The relative viability of the first is lower: 0.879 for the first, 1.23 for the second.

Compared with NCI-H2087, H3255 is higher in relative viability: 0.662 for the first, 0.775 for the second.

Going from COR-L23 to COR-L 105, the relative viability rises from 0.318 to 1.21.

Going from IA-LM to LOU-NH91, the relative viability falls from 1.03 to 0.441.

First: ChaGo-K-1
Second: NCI-H2405
The relative viability of the first is lower: 0.678 for the first, 0.969 for the second.

Going from HCC-44 to NCI-H1299, the relative viability rises from 0.827 to 1.08.

First: NCI-H1792
Second: NCI-H1563
The relative viability of the first is lower: 0.382 for the first, 1.04 for the second.

With ABC-1 the relative viability was 0.275.

same assay, conditions: first compound 100 µM

Compared with NCI-H727, NCI-H1650 is lower in relative viability: 0.762 for the first, 0.199 for the second.

First: EBC-1
Second: NCI-H1703
The relative viability of the first is higher: 0.623 for the first, 0.411 for the second.

Compared with NCI-H1993, SW 1573 is lower in relative viability: 0.778 for the first, 0.584 for the second.

Going from NCI-H838 to LCLC-103H, the relative viability rises from 0.298 to 1.01.

First: NCI-H520
Second: NCI-H2126
The relative viability of the first is lower: 0.224 for the first, 0.809 for the second.

Compared with EMC-BAC-2, NCI-H2085 is lower in relative viability: 1.11 for the first, 0.683 for the second.

Going from Calu-6 to HCC-366, the relative viability falls from 0.306 to 0.116.

First: NCI-H1666
Second: NCI-H596
The relative viability of the first is lower: 0.612 for the first, 0.986 for the second.

Going from NCI-H2087 to H3255, the relative viability rises from 0.321 to 0.942.

First: COR-L23
Second: COR-L 105
The relative viability of the first is lower: 0.251 for the first, 0.843 for the second.

Going from IA-LM to LOU-NH91, the relative viability falls from 0.672 to 0.492.

Going from ChaGo-K-1 to NCI-H2405, the relative viability rises from 0.284 to 0.565.

First: HCC-44
Second: NCI-H1299
The relative viability of the first is lower: 0.251 for the first, 0.747 for the second.

First: NCI-H1792
Second: NCI-H1563
The relative viability of the first is lower: 0.359 for the first, 0.928 for the second.

In the case of ABC-1, the relative viability is reported as 0.349.

compound: O=c1ncccn1[C@@H]1O[C@H](CO)[C@@H](O)[C@H]1O [Zebularine] + Cc1nc(Nc2ncc(C(=O)Nc3c(C)cccc3Cl)s2)cc(N2CCN(CCO)CC2)n1 [Dasatinib] (partner 0.075 µM); experiment: as above; settings: first compound 1 µM
How it was run: as §1

First: NCI-H2342
Second: NCI-H1623
The relative viability of the first is lower: 0.364 for the first, 0.632 for the second.

Going from NCI-H727 to NCI-H1650, the relative viability rises from 0.383 to 0.384.

First: NCI-H1993
Second: SW 1573
The relative viability of the first is higher: 0.658 for the first, 0.555 for the second.

Compared with NCI-H838, LCLC-103H is higher in relative viability: 0.318 for the first, 0.485 for the second.

Going from NCI-H520 to NCI-H2126, the relative viability rises from 0.195 to 0.813.

Going from EMC-BAC-2 to NCI-H2085, the relative viability falls from 0.349 to 0.209.

HCC-366 was tested, and the relative viability was 0.617.
